Assay results from patent US20140005163A1 (NOVARTIS AG, priority 2010, published 2014).

Columns and labels:
[1] = Cellular CaCo2 permeability assay from apical to basal (A-B); assay type: in vitro ADME; conditions: human, Caco-2, read-out: Pe A-B (permeability)
Description: The permeability in 10^−6 cm/s of compounds of formula (I) have been confirmed for selected example using a cellular CaCo2 permeability assay from apical to basal (A-B): […]

[2] = biological target: T1, PI3K alpha (Homo sapiens, UniProt P42336); test: PI3K alpha kinase assay (Kinase-Glo luminescence); assay type: biochemical
T1 construct: p85(iSH2) fusion partner (see partner chain) (N); His tag (C); made in house; host or cells: baculovirus; Tn5 (Trichoplusia ni) or TiniPro insect cells
In short: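 Read-out: Kinase-Glo luminescence of ATP left after 60 min at room temperature. Conditions: 10 nM PI3Kα (EMV B1075), 1 μM ATP, 10 μg/mL PI substrate, Tris pH 7.5 buffer with MgCl2, NaCl, CHAPS and DTT. IC50s fitted with a four-parameter logistic model.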

[3] = biological target: T2, PI3K gamma (Homo sapiens, UniProt P48736); test: PI3K gamma kinase assay (Kinase-Glo luminescence); assay type: biochemical
T2 construct: His tag (C); made in house; host or cells: baculovirus (pVL1393); Tn5 or TiniPro insect cells; construct from Roger Williams lab, MRC LMB
In short: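 PI3Kγ (150 nM) reaction run 120 min at room temperature with phosphatidylinositol substrate (10 μg/mL) and ATP (1 μM) in Tris pH 7.5 buffer containing MgCl2, NaCl, CHAPS and DTT. Remaining ATP detected by Kinase-Glo luminescence; 8 concentrations per compound, IC50 from 4-parameter curve fitting.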

[4] = tested on: PKB Ser473 phosphorylation in Rat1-myr-HA-p110 alpha cells; test: Reverse protein array assay, PKB Ser473 phosphorylation in Rat1-myr-p110 alpha cells; assay type: cell-based; conditions: 0.5 h, pAkt Ser473, 30 minutes compound incubation, read-out: p-PKB IC50
In short: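 Rat1 cells expressing myristoylated HA-tagged p110 alpha, beta or delta were plated for at least 20 h, then exposed to 8-step serial compound dilutions (0.2% DMSO final) for 30 min at 37 °C. Lysates were spotted at four dilutions on protein microarrays, and relative fluorescence intensity of phospho-Ser473 PKB was calculated.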

[5] = biological target: T3, PI3K delta (Homo sapiens, UniProt O00329); test: PI3K delta kinase assay (Kinase-Glo luminescence); assay type: biochemical
T3 construct: for the full-length p110-d subunit are generated and fused by overlapping PCR; p85(iSH2) fusion partner (see partner chain) (N); His tag (C); made in house; host or cells: baculovirus; Tn5 (Trichoplusia ni) or TiniPro insect cells
In short: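 Kinase-Glo luminescence read-out of ATP remaining after 60 min at RT. Enzyme: 10 nM BV1060 (p85 iSH2–p110δ fusion, His-tagged); substrate 10 μg/mL PI, ATP 1 μM final; Tris pH 7.5 buffer with MgCl2, NaCl, CHAPS, DTT. IC50 from 4-parameter logistic fit over 8 concentrations.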

T2 sequence (P48736 144-1102 limits assumed): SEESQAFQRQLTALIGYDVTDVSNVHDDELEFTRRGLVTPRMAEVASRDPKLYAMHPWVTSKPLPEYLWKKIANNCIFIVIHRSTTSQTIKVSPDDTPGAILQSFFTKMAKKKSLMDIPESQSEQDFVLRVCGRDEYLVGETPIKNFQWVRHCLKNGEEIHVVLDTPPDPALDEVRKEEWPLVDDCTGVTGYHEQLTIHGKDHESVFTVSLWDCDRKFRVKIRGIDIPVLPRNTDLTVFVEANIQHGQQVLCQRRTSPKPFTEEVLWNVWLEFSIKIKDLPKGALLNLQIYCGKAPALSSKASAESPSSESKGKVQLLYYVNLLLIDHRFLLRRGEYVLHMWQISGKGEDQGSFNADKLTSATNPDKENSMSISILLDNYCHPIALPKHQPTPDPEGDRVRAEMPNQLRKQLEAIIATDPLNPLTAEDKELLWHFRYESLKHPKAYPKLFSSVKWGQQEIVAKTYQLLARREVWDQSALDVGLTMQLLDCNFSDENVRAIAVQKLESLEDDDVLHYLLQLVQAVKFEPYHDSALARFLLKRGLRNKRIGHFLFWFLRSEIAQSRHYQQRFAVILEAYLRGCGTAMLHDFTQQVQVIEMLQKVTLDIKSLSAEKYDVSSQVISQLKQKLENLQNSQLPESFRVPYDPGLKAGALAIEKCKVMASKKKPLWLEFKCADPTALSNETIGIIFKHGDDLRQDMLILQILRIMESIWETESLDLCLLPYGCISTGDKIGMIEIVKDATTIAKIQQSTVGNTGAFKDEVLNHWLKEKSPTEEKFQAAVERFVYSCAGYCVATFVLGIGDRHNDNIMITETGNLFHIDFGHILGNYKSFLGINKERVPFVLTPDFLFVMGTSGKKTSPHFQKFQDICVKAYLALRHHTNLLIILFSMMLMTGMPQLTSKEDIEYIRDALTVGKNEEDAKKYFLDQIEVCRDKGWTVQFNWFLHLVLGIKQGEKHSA
T3 sequence (O00329 with tags, fused parts or gaps limits assumed): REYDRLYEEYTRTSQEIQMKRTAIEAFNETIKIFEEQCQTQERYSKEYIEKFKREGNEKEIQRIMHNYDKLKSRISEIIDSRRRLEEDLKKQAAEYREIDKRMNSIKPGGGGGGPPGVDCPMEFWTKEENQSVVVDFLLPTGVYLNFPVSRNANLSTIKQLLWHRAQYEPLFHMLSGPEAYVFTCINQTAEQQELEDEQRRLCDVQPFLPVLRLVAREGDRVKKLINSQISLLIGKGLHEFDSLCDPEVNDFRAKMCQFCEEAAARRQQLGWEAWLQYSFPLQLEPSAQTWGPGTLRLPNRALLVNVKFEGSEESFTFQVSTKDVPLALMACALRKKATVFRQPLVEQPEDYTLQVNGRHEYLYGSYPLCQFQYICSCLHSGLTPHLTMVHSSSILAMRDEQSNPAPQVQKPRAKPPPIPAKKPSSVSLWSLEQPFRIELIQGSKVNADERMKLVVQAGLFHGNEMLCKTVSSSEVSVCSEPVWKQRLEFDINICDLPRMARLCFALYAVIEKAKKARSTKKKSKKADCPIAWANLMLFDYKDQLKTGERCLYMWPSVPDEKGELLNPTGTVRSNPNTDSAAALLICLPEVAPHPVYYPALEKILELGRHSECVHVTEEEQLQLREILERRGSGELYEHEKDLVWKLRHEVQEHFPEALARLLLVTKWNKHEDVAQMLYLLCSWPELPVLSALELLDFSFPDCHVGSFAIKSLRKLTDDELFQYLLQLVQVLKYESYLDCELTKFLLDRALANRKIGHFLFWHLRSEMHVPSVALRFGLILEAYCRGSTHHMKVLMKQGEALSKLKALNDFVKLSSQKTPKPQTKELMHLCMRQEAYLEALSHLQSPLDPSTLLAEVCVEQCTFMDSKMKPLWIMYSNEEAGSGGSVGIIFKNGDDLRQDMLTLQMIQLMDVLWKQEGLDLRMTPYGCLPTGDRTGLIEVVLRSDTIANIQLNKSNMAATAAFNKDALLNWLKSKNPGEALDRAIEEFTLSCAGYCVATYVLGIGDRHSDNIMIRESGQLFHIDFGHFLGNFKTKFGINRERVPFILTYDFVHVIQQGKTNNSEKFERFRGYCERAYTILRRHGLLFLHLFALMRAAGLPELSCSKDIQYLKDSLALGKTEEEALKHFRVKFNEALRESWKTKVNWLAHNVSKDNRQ
T1 sequence (P42336 with tags, fused parts or gaps limits assumed): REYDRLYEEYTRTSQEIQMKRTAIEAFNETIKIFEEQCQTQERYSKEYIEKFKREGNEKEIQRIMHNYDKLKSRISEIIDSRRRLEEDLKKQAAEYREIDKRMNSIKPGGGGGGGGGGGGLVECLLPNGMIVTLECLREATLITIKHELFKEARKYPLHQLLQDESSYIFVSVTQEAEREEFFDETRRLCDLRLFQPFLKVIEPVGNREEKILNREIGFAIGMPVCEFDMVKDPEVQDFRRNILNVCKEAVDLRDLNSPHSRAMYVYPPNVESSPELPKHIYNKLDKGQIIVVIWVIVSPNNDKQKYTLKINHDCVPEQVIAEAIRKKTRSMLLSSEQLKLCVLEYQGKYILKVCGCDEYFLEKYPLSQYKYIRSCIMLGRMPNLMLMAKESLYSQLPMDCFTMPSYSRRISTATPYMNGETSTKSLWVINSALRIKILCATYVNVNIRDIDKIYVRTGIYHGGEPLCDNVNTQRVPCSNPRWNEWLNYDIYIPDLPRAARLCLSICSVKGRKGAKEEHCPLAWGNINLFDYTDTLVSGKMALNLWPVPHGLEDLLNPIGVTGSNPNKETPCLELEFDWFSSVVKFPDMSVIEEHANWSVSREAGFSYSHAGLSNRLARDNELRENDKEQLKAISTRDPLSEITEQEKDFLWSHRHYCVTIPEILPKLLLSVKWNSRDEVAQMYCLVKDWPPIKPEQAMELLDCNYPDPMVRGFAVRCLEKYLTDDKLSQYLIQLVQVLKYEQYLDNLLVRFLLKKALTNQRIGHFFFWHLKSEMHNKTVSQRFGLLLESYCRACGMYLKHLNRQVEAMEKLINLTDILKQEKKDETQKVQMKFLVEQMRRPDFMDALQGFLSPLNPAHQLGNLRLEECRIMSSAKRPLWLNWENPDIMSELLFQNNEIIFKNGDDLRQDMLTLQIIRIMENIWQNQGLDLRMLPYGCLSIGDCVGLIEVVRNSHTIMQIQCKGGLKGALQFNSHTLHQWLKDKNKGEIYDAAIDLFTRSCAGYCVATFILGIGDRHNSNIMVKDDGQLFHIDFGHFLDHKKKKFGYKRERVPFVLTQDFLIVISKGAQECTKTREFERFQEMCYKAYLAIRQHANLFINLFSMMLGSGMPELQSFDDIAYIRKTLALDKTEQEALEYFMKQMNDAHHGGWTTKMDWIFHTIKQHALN

Work on `CCOc1ccc(-c2ccc3ncc4c(c3c2)n(-c2cn(C)nc2C)c(=O)n4C)cn1` [Example 3.1, 1-(1,3-Dimethyl-1H-pyrazol-4-yl)-8-(6-ethoxy-pyridin-3-yl)-3-methyl-1,3-dihydro-imidazo[4,5-c]quinolin-2-one] yielded a Papp A→B [1] of 28.6 ×10⁻⁶ cm/s, an IC50 [2] of 21 nM and an IC50 [3] of 246 nM. It also gave an IC50 [4] of 24 nM and an IC50 [5] of 37 nM.

`Cc1nn(C)cc1-n1c(=O)n(C)c2cnc3ccc(-c4cnc(N(C)C)nc4)cc3c21` [Example 6.2, 8-(2-Dimethylamino-pyrimidin-5-yl)-1-(1,3-dimethyl-1H-pyrazol-4-yl)-3-methyl-1,3-dihydro-imidazo[4,5-c]quinolin-2-one] showed a Papp A→B [1] of 26.6 ×10⁻⁶ cm/s, an IC50 [2] of 22 nM and an IC50 [3] of 319 nM. It also gave an IC50 [4] of 32 nM and an IC50 [5] of 32 nM.

`COc1cncc(-c2ccc3ncc4c(c3c2)n(-c2cn(C)nc2C)c(=O)n4C)c1` [Example 12, 1-(1,3-Dimethyl-1H-pyrazol-4-yl)-8-(5-methoxy-pyridin-3-yl)-3-methyl-1,3-dihydro-imidazo[4,5-c]quinolin-2-one] showed a Papp A→B [1] of 24 ×10⁻⁶ cm/s, an IC50 [2] of 8 nM and an IC50 [3] of 92 nM. For the same molecule, the IC50 [4] was 37 nM and the IC50 [5] was 31 nM.

`CCOc1cncc(-c2ccc3ncc4c(c3c2)n(-c2cn(C)nc2C)c(=O)n4C)c1` [Example 56.1, 1-(1,3-Dimethyl-1H-pyrazol-4-yl)-8-(5-ethoxy-pyridin-3-yl)-3-methyl-1,3-dihydro-imidazo[4,5-c]quinolin-2-one] gave a Papp A→B [1] of 39.7 ×10⁻⁶ cm/s, an IC50 [2] of 4 nM and an IC50 [3] of 123 nM. For the same molecule, the IC50 [4] was 16 nM and the IC50 [5] was 6 nM.

Molecule `CCn1cc(-n2c(=O)n(C)c3cnc4ccc(-c5cnc(OC)nc5OC)cc4c32)c(C)n1` [Example 234.1, 8-(2,4-Dimethoxy-pyrimidin-5-yl)-1-(1-ethyl-3-methyl-1H-pyrazol-4-yl)-3-methyl-1,3-dihydro-imidazo[4,5-c]quinolin-2-one] has a Papp A→B [1] of 35.5 ×10⁻⁶ cm/s, an IC50 [2] of 20 nM and an IC50 [4] of 10 nM. It also gave an IC50 [5] of 9 nM.

Molecule `COc1ccc(-c2ccc3ncc4[nH]c(=O)n(-c5cc(C)nn5C)c4c3n2)cc1OC` [Example 252, 8-(3,4-Dimethoxy-phenyl)-1-(2,5-dimethyl-2H-pyrazol-3-yl)-1,3-dihydro-1,3,5,9-tetraaza-cyclopenta[a]naphthalen-2-one] has a Papp A→B [1] of 29.4 ×10⁻⁶ cm/s, an IC50 [2] of 3 nM and an IC50 [3] of 45 nM. The IC50 [4] was 12 nM and the IC50 [5] was 7 nM.
